# Molecular target: T1, ORF15 (polyprenyl phosphoribofuranose synthase, PPPRS) (Citrobacter youngae, UniProt A0A2Z4BV67)
# T1 construct: gene ubiA; full-length two-domain integral membrane protein (N-terminal PRP/HAD, C-terminal UbiA-type PPPRS); plasmid-expressed, membranes used as enzyme
# T1 sequence (A0A2Z4BV67 1-483): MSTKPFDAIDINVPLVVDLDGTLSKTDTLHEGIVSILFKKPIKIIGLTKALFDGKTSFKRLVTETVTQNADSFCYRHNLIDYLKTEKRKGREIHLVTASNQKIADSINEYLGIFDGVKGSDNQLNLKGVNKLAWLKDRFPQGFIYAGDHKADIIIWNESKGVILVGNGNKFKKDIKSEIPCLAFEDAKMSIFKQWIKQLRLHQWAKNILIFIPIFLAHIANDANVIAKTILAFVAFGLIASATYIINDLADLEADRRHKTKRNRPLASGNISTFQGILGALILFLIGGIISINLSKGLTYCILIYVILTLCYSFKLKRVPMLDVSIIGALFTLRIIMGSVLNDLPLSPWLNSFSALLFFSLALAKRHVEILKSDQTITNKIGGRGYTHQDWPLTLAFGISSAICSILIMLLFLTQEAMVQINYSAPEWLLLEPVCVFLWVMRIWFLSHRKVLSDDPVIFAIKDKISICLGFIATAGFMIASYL
# Assay: TLC, MS and NMR of product formed by membranes
# Type: biochemical
# Settings: […] °C, […] h, expressed membranes
smiles,measurement,setting,value
"CC(C)=CCC/C(C)=C/CC/C(C)=C/COP(=O)(O)O [compound 1, farnesyl-phosphate]","TLC, MS and NMR of product formed by membranes","[…] acceptor, […] PRPP, […] MgCl2, […] HEPES pH […]",revealing production of a slower migrating species that was dependent on the presence of PRPP
O=P(O)(O)OC[C@H]1O[C@H](OP(=O)(O)OP(=O)(O)O)[C@H](O)[C@@H]1O [phosphoribosylpyrophosphate],"TLC, MS and NMR of product formed by membranes","[…] donor, […] farnesylP acceptor, […] MgCl2, pH […]","membranes, PRPP donor, and farnesylP acceptor were analyzed by thin layer chromatography (TLC)"

# Reference: publication PMC11127046, “Three-component systems represent a common pathway for extracytoplasmic addition of pentofuranose sugars into bacterial glycans” (Proceedings of the National Academy of Sciences of the …, 2024)
